In patent publication US20170260185A1 (priority 2014, published 2017):
Read-outs that look alike come from different tables or passages of the source.

Experiments:
[1] = biological target: T1, human norepinephrine transporter (NET) (Homo sapiens, UniProt P23975); assay: Scintillation Proximity Assay (SPA) competition binding, [3H]nisoxetine, hNET-CHO membranes
T1 construct: expressed in transfected cells; host or cells: CHO (hNET-CHO), membrane preparation

[2] = biological target: T2, human dopamine transporter (DAT) (Homo sapiens, UniProt Q01959); assay: Scintillation Proximity Assay (SPA) competition binding, [3H]WIN-35,428, hDAT-CHO membranes
T2 construct: expressed in transfected cells; host or cells: CHO (hDAT-CHO), membrane preparation

[3] = biological target: human ERG potassium channel (hERG) (Homo sapiens, UniProt Q12809); assay: cell-based
Procedure: Measure of the Effect on hERG Channel by Tail Current Recording Using In Vitro Rapid ICE™
The potency of the compounds of the invention in inhibiting human ERG potassium channel (hERG) tail current is assessed in a recombinant HEK293 cell line stably transfected with hERG cDNA using Rapid ICE™ (Rapid Ion Channel Electrophysiology) assay. Rapid ICE™ is an automated patch-clamp assay utilizing the PatchXpress 7000A system (Molecular Devices Corporation) or the QPatch HTX system (Sophion Bioscience A/S).
Briefly cells are cultivated for 24 to 72 hours before recordings in minimum essential medium supplemented with 10% FBS, 1% non-essential amino acids, 1% sodium pyruvate, 2 mM L-glutamine. The day of the experiment cells are detached with TrypLE and prepared to be loaded on the instrument. For PatchXpress cells are finally resuspended in 150 μl of Extracellular Buffer whereas for QPatch cells are resuspended in 7 ml Serum-Free Media containing 25 mM Hepes and Soybean trypsin inhibitor and immediately placed in the cell storage tank of the machine. The composition of the Extracellular Buffer is (mM): NaCl 137; KCl 4; CaCl2 1.8; MgCl2 1.0; D-glucose 10; N 2 hydroxyethylpiperazine-N′-2-ethanesulfonic acid (HEPES) 10; pH 7.4 with 1 M NaOH. The composition of the pipette solution is (mM): KCl 130; MgCl2 1.0; Ethylene glycol-bis(R-aminoethyl ether)-N,N,N′,N′-tetraacetic acid (EGTA) 5; MgATP 5; HEPES 10; pH 7.2 with 1 M KOH. The voltage protocol includes the following steps: step from −80 mV to −50 mV for 200 ms, +20 mV for 4.8 s, step to −50 mV for 5 s then step to the holding potential of −80 mV. Compounds of the invention are dissolved in DMSO and diluted in Extracellular Buffer to achieve final test concentrations (0.1, 1 and 10 μM) in 0.1% DMSO. The voltage protocol is run and recorded continuously during the experiment. The vehicle, corresponding to 0.1% DMSO in Extracellular Buffer, is then applied for 3 min followed by the test substance in triplicate. The standard combined exposure time is 5 min. The average of tail current amplitude values recorded from 4 sequential voltage pulses is used to calculate for each cell the effect of the test substance by calculating the residual current (% control) compared with vehicle pre-treatment. Data are reported as % inhibition for each concentration tested and IC50 values are estimated using DataXpress or QPatch software. At least two cells are tested, more if results diverge.

[4] = biological target: T3, human serotonin transporter (SERT) (Homo sapiens, UniProt P31645); assay: Scintillation Proximity Assay (SPA) competition binding, [3H]citalopram, hSERT-CHO membranes
T3 construct: expressed in transfected cells; host or cells: CHO (hSERT-CHO), membrane preparation

[5] = read-out: pIC50 DAT (converted)

T2 sequence (Q01959 whole entry): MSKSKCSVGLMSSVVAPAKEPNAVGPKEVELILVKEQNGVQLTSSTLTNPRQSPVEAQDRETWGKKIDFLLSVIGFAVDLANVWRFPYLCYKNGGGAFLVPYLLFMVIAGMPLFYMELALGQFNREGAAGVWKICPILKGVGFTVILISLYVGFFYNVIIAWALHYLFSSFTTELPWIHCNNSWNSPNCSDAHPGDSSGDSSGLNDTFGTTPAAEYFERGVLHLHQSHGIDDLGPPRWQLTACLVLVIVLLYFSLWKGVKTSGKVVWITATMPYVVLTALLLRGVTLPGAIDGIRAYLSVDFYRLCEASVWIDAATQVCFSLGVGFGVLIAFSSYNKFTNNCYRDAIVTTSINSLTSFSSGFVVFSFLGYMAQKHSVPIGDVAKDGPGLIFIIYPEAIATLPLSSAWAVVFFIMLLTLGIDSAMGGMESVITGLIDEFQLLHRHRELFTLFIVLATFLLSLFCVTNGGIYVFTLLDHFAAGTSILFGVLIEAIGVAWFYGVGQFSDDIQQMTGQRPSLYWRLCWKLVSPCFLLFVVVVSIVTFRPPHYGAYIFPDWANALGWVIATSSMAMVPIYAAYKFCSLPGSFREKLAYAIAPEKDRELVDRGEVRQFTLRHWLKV
Sequence of human ERG potassium channel (hERG) (Q12809 whole entry): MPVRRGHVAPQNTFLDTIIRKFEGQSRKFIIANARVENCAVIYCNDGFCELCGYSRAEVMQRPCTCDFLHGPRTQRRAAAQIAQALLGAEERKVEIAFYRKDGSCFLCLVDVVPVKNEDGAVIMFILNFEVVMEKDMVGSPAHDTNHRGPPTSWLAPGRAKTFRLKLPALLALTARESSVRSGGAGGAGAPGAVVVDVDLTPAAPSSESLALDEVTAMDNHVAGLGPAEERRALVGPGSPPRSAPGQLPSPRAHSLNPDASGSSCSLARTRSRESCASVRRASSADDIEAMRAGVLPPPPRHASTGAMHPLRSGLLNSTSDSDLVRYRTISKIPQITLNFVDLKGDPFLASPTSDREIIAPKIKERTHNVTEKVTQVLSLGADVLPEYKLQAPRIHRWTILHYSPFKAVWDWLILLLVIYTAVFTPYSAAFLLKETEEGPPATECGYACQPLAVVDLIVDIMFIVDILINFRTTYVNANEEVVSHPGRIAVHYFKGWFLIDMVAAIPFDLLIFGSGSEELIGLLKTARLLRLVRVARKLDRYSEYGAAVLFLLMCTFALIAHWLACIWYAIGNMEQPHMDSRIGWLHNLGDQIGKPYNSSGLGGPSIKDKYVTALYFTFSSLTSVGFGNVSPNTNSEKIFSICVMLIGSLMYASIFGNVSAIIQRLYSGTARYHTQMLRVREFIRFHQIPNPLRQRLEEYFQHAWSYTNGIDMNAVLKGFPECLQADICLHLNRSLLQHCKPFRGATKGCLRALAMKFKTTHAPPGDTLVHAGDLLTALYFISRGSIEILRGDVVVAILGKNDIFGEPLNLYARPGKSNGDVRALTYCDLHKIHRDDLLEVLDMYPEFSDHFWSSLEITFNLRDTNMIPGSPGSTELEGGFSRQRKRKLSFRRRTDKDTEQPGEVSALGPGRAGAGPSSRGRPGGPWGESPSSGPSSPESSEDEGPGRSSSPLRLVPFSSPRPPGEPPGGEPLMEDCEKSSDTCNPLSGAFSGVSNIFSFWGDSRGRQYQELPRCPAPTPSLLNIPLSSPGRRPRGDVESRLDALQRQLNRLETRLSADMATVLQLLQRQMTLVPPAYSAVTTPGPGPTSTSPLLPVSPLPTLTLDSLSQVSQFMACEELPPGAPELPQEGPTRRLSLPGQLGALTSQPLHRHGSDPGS
T1 sequence (P23975 whole entry): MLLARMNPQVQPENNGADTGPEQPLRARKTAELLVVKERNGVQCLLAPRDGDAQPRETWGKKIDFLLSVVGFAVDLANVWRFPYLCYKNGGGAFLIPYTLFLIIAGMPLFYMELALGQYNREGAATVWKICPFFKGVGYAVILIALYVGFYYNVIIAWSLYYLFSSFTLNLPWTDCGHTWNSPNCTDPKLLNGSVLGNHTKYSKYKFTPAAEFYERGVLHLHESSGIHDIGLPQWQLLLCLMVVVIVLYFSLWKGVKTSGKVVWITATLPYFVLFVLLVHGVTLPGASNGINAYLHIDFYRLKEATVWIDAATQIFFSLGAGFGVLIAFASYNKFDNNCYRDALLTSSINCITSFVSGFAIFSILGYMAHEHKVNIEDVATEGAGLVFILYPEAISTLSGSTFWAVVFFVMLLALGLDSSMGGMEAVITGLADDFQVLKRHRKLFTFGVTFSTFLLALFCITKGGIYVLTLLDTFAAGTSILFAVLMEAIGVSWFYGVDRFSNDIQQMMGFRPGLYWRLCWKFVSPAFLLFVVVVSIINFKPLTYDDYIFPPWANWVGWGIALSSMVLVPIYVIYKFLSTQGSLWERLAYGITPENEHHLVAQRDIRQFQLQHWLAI
T3 sequence (P31645 whole entry): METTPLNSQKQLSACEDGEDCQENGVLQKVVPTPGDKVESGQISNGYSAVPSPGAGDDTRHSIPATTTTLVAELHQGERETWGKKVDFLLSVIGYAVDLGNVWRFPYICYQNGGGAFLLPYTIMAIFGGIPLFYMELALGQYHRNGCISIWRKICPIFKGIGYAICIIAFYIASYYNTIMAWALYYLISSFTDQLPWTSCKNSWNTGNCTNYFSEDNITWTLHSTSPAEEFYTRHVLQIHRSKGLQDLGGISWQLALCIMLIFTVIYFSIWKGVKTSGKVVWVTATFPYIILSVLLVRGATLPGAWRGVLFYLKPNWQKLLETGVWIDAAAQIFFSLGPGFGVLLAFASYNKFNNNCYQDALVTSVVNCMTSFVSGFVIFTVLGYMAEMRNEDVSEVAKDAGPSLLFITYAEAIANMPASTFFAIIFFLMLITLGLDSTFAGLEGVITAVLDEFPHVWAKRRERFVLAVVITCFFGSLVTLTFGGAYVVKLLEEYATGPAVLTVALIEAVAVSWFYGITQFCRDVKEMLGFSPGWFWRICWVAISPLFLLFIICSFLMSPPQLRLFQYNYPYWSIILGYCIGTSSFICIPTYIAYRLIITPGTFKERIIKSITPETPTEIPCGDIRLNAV

Compound	IC50 [1] [nM]	IC50 [2, 5] [nM]	IC50 [3] [nM]	IC50 [4] [nM]	IC50 ([2]; pIC50 DAT) [nM]
CN1CCC(O)C2(CCN(C(c3ccc(F)cc3)c3ccc(F)cc3)C2)C1 (centres unmarked) [Example 4, 2-[bis(4-fluorophenyl)methyl]-7-methyl-2,7-diazaspiro[4.5]decan-10-ol]	18200	195	1580	18600	
Fc1ccc(C(c2ccc(F)cc2)N2CCC3(CNCCO3)C2)cc1 (centres unmarked) [Example 29, 2-[bis(4-fluorophenyl)methyl]-6-oxa-2,9-diazaspiro[4.5]decane]	1380	107	6310	6920	
Fc1ccc(C(c2ccc(F)cc2)N2CCC3(CC2)CNCCO3)cc1 [Example 31, 9-[bis(4-fluorophenyl)methyl]-1-oxa-4,9-diazaspiro[5.5]undecane]	2040		3160	2630	46.8
CN1CCC(=O)C2(CCN(C(c3ccc(F)cc3)c3ccc(F)cc3)C2)C1 (centres unmarked) [Example 2, 2-[bis(4-fluorophenyl)methyl]-7-methyl-2,7-diazaspiro[4.5]decan-10-one]	22400	372	7940	21900	
O=C1CCNCC12CCN(C(c1ccc(F)cc1)c1ccc(F)cc1)C2 (centres unmarked) [Example 1, 2-[bis(4-fluorophenyl)methyl]-2,7-diazaspiro[4.5]decan-10-one]	3800	129	2000	22400	
